Results taken from patent publication US20230339919A1, “BENZO OXYGEN-CONTAINING HETEROCYCLIC COMPOUNDS AND MEDICAL APPLICATION THEREOF” (AB PHARMA LTD., priority 2020, published 2023).

tested on: not listed separately; assay: Ames assay; details: not given

Compound | Ames assay result
O=C(O)C[C@@H]1COc2cc(OCc3cc(Cl)cc4c3OCO4)ccc21 [IIb-25] | no relevant side effects

biological target: T1, GPR40 (Homo sapiens, UniProt O14842); assay: GPR40 agonist activity, FLIPR calcium assay in CHO-K1/GPR40 cells; format: cell-based; details: GPR40 agonist activity range (EC50), CHO-K1/GPR40 cells; read-out: GPR40 activity
T1 construct: expressed in transfected cells; host or cells: CHO-K1
T1 sequence (O14842 whole entry): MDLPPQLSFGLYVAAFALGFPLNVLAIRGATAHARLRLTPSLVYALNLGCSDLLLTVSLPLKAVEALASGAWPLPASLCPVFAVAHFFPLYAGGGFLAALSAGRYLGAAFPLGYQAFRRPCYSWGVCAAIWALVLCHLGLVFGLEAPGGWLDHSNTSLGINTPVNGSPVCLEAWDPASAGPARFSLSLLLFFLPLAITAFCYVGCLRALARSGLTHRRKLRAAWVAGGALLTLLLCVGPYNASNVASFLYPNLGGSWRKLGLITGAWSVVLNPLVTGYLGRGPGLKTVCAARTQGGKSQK
Description: Inoculate CHO-K1/GPR40 cells in 384-well plates at a density of 10,000 cells/well. Cells were incubated at 37° C. for 24 hours in a 5% CO2 incubator. After the experiment, discard the cell culture medium, quickly add […] of 1× FLIPR® Calcium 6 dye containing 2.5 mM/Probenecid to each well and incubate at 37° C. for 2 hours protected from light. For the determination, different concentrations of drug ([…]) were added to the wells and the fluorescence values were read. The fluorescence excitation wavelength was 494 nm and emission wavelength was 516 nm. FLIPR instrument data, EC50 was derived from the formula Y=Bottom+(Top−Bottom)/(1+(EC50/X)^HillSlope).

Compound | EC50 [nM]
N#Cc1cc(COc2ccc3c(c2)OCC3CC(=O)O)c2c(c1)OCO2 (stereo not shown) [IIb-15] | 10 to 100
O=C(O)CC1COc2cc(OCc3ccc4c(c3)OCO4)ccc21 (stereo not shown) [IIb-04] | 10 to 100
O=C(O)CC1COc2cc(OCc3ccc(F)c4c3OCO4)ccc21 (stereo not shown) [IIb-12] | > 100
O=C(O)CC1COc2cc(OCc3c(F)ccc4c3OCO4)ccc21 (stereo not shown) [IIb-13] | > 100
O=C(O)C(Br)C1COc2cc(OCc3cccc4c3OC(F)(F)O4)ccc21 (stereo not shown) [IIb-30] | > 100
O=C(O)CC1COc2cc(OCc3cccc4c3OC(F)(F)O4)ccc21 (stereo not shown) [IIb-17] | 10 to 100
O=C(O)CC1COc2cc(OCc3ccc(Br)c4c3OCO4)ccc21 (stereo not shown) [IIb-16] | > 100
CC1(C)Oc2cc(Br)cc(COc3ccc4c(c3)OCC4CC(=O)O)c2O1 (stereo not shown) [IIb-22] | > 100
O=C(O)CC1COc2cc(OCc3c(Br)ccc4c3OCCO4)ccc21 (stereo not shown) [IIb-08] | > 100
O=C(O)CC1COc2cc(OCc3cc(C(F)(F)F)cc4c3OCO4)ccc21 (stereo not shown) [IIb-14] | 10 to 100
O=C(O)CC1COc2cc(OCc3cccc4c3OC(F)(F)O4)c(Cl)cc21 (stereo not shown) [IIb-28] | > 100
O=C(O)CC1COc2cc(OCc3ccc(Cl)c4c3OC(F)(F)O4)ccc21 (stereo not shown) [IIb-24] | > 100
O=C(O)CC1COc2cc(OCc3cccc4c3OCCO4)ccc21 (stereo not shown) [IIb-19] | > 100
O=C(O)CC1COc2cc(OCc3cc(Cl)cc4c3OCO4)ccc21 (stereo not shown) [IIb-05] | 10 to 100
O=C(O)CC1COc2cc(OCc3cc(F)cc4c3OCO4)ccc21 (stereo not shown) [IIb-06] | 10 to 100
O=C(O)C[C@@H]1COc2cc(OCc3cc(Cl)cc4c3OCO4)ccc21 [IIb-25] | < 10
O=C(O)CC1COc2cc(OCc3cc(Br)cc4c3OCCO4)ccc21 (stereo not shown) [IIb-09] | > 100
O=C(O)CC1COc2cc(OCc3cc(F)cc4c3OCCO4)ccc21 (stereo not shown) [IIb-11] | > 100
CC1(C)Oc2cccc(COc3ccc4c(c3)OCC4CC(=O)O)c2O1 (stereo not shown) [IIb-20] | 10 to 100
O=C(O)CC1COc2cc(OCc3c(Br)ccc4c3OCO4)ccc21 (stereo not shown) [IIb-03] | > 100
O=C(O)C[C@@H]1COc2cc(OCc3cc(F)cc4c3OCO4)ccc21 [IIb-07] | 10 to 100
O=C(O)CC1COc2cc(OCc3cccc4c3OC(F)(F)O4)c(F)cc21 (stereo not shown) [IIb-29] | > 100
O=C(O)CC1COc2cc(OCc3cccc4c3OC(F)(F)O4)c(Br)cc21 (stereo not shown) [IIb-26] | > 100
O=C(O)CC1COc2cc(OCc3cc(Br)cc4c3OCO4)ccc21 (stereo not shown) [IIb-02] | > 100
O=C(O)CC1COc2cc(OCc3cc(Cl)cc4c3OCCO4)ccc21 (stereo not shown) [IIb-10] | > 100
O=C(O)CC1COc2c1cc(Br)c(OCc1cccc3c1OC(F)(F)O3)c2Br (stereo not shown) [IIb-27] | > 100
O=C(O)CC1COc2cc(OCc3cccc4c3OCO4)ccc21 (stereo not shown) [IIb-01] | > 100
O=C(O)CC1COc2cc(OCc3cc(Cl)cc4c3OC(F)(F)O4)ccc21 (stereo not shown) [IIb-23] | 10 to 100
O=C(O)CC1COc2cc(OCc3cc(Br)cc4c3OC(F)(F)O4)ccc21 (stereo not shown) [IIb-21] | 10 to 100
NC(C(=O)O)C1COc2cc(OCc3cccc4c3OC(F)(F)O4)ccc21 (stereo not shown) [IIb-31] | > 100

Now from value to compound:

EC50 [nM] | Compound
10 to 100 | CC#CC(CC(=O)O)c1ccc(OCc2cc(NC(=O)OC(C)(C)C)cc3c2OC(F)(F)O3)cc1 (stereo not shown) [IIb-64]
> 100 | CC(C)S(=O)(=O)Nc1cc(COc2ccc3c(c2)OC[C@H]3CC(=O)O)c2c(c1)OCO2 [IIb-51]
10 to 100 | O=C(O)C(F)C1COc2cc(OCc3cccc4c3OC(F)(F)O4)ccc21 (stereo not shown) [IIb-33]
> 100 | COc1cc(COc2ccc3c(c2)OC[C@H]3CC(=O)O)c2c(c1)OCO2 [IIb-45]
10 to 100 | O=C(O)C[C@@H]1COc2cc(OCc3cc(Cl)cc4c3OC(F)(F)O4)ccc21 [IIb-56]
> 100 | O=C(O)C(O)C1COc2cc(OCc3cccc4c3OC(F)(F)O4)ccc21 (stereo not shown) [IIb-32]
10 to 100 | Cc1cc(OCCCS(C)(=O)=O)cc(C)c1-c1cc(COc2ccc3c(c2)OC[C@H]3CC(=O)O)c2c(c1)OCO2 [IIb-38]
10 to 100 | O=C(O)C[C@@H]1COc2cc(OCc3cc(C(F)(F)F)cc4c3OCO4)ccc21 [IIb-53]
> 100 | O=C(O)C[C@@H]1COc2cc(OCc3cc(OC(F)(F)F)cc4c3OCO4)ccc21 [IIb-52]
> 100 | Nc1cc(COc2ccc3c(c2)OC[C@H]3CC(=O)O)c2c(c1)OCO2 [IIb-44]
> 100 | CC(C)(CC(=O)O)c1ccc(OCc2cc(F)cc3c2OCO3)cc1 [IIb-36]
10 to 100 | O=C(O)C[C@@H]1COc2cc(OCc3cc(I)cc4c3OCO4)ccc21 [IIb-40]
10 to 100 | O=C(O)C(F)C1COc2cc(OCc3cc(Cl)cc4c3OCO4)ccc21 (stereo not shown) [IIb-58]
> 100 | O=C(O)CC1(c2ccc(OCc3cc(F)cc4c3OCO4)cc2)OCCO1 [IIb-37]
10 to 100 | O=C(O)C[C@@H]1COc2cc(OCc3cc(C(F)(F)F)cc4c3OC(F)(F)O4)ccc21 [IIb-54]
> 100 | CN(C)c1ccc2c(c1COc1ccc3c(c1)OC[C@H]3CC(=O)O)OCO2 [IIb-42]

EC50 [nM] | Compound
10 to 100 | CC(C)(C)OC(=O)Nc1cc(COc2ccc3c(c2)OCC3C(F)C(=O)O)c2c(c1)OCO2 (stereo not shown) [IIb-59]
10 to 100 | CC#CC(CC(=O)O)c1ccc(OCc2cccc3c2OC(F)(F)O3)cc1 (stereo not shown) [IIb-62]
> 100 | CN(C)c1cc(COc2ccc3c(c2)OC[C@H]3CC(=O)O)c2c(c1)OCO2 [IIb-41]
10 to 100 | O=C(O)C(F)C1COc2cc(OCc3cc(F)cc4c3OCO4)ccc21 (stereo not shown) [IIb-57]
> 100 | CC(C)(C)NC(=O)Nc1cc(COc2ccc3c(c2)OC[C@H]3CC(=O)O)c2c(c1)OCO2 [IIb-49]
< 10 | CC(C)(C)OC(=O)Nc1cc(COc2ccc3c(c2)OC[C@H]3CC(=O)O)c2c(c1)OC(F)(F)O2 [IIb-46]
> 100 | CC(C)(C)C(=O)Nc1cc(COc2ccc3c(c2)OC[C@H]3CC(=O)O)c2c(c1)OCO2 [IIb-50]
> 100 | COC(=O)Nc1cc(COc2ccc3c(c2)OC[C@H]3CC(=O)O)c2c(c1)OCO2 [IIb-47]
> 100 | O=C(O)C(F)(F)C1COc2cc(OCc3cccc4c3OC(F)(F)O4)ccc21 (stereo not shown) [IIb-34]
> 100 | O=C(O)C(F)(F)C1COc2cc(OCc3cc(Cl)cc4c3OCO4)ccc21 (stereo not shown) [IIb-39]
10 to 100 | O=C(O)CC1CCc2cc(OCc3cccc4c3OC(F)(F)O4)ccc21 (stereo not shown) [IIb-61]
10 to 100 | CC(C)(C)OC(=O)Nc1cc(COc2ccc3c(c2)CCC3CC(=O)O)c2c(c1)OC(F)(F)O2 (stereo not shown) [IIb-63]
10 to 100 | O=C(O)C[C@@H]1COc2cc(OCc3cc(F)cc4c3OC(F)(F)O4)ccc21 [IIb-55]
10 to 100 | O=C(O)CC1CCc2cc(OCc3cc(F)cc4c3OCO4)ccc21 (stereo not shown) [IIb-35]
10 to 100 | O=C(O)C[C@@H]1COc2cc(OCc3cc(NC(=O)OC4CCCC4)cc4c3OCO4)ccc21 [IIb-48]

same assay, conditions: Table 4; read-out: GPR40 Activity (hEC50)

Compound | EC50 [nM]
O=C(O)C[C@@H]1COc2cc(OCc3cc(Cl)cc4c3OCO4)ccc21 [IIb-25] | 9.2

same assay, conditions: read-out: GPR40 activity (EC50)

Compound | EC50 [nM]
O=C(O)C[C@@H]1COc2cc(OCc3cc(Cl)cc4c3OCO4)ccc21 [IIb-25] | < 10
CC(C)(C)OC(=O)Nc1cc(COc2ccc3c(c2)OC[C@H]3CC(=O)O)c2c(c1)OC(F)(F)O2 [IIb-46] | < 10

biological target: BSEP bile salt transporter (Homo sapiens, UniProt O95342); assay: BSEP (Bile Salt Export Pump) assay, taurocholic acid uptake by BSEP vesicles, LC/MS/MS; format: in vitro ADME; details: inhibition of TCA uptake by BSEP vesicles; read-out: Potential inhibitory side effects BSEP (IC50)
Sequence (O95342 whole entry): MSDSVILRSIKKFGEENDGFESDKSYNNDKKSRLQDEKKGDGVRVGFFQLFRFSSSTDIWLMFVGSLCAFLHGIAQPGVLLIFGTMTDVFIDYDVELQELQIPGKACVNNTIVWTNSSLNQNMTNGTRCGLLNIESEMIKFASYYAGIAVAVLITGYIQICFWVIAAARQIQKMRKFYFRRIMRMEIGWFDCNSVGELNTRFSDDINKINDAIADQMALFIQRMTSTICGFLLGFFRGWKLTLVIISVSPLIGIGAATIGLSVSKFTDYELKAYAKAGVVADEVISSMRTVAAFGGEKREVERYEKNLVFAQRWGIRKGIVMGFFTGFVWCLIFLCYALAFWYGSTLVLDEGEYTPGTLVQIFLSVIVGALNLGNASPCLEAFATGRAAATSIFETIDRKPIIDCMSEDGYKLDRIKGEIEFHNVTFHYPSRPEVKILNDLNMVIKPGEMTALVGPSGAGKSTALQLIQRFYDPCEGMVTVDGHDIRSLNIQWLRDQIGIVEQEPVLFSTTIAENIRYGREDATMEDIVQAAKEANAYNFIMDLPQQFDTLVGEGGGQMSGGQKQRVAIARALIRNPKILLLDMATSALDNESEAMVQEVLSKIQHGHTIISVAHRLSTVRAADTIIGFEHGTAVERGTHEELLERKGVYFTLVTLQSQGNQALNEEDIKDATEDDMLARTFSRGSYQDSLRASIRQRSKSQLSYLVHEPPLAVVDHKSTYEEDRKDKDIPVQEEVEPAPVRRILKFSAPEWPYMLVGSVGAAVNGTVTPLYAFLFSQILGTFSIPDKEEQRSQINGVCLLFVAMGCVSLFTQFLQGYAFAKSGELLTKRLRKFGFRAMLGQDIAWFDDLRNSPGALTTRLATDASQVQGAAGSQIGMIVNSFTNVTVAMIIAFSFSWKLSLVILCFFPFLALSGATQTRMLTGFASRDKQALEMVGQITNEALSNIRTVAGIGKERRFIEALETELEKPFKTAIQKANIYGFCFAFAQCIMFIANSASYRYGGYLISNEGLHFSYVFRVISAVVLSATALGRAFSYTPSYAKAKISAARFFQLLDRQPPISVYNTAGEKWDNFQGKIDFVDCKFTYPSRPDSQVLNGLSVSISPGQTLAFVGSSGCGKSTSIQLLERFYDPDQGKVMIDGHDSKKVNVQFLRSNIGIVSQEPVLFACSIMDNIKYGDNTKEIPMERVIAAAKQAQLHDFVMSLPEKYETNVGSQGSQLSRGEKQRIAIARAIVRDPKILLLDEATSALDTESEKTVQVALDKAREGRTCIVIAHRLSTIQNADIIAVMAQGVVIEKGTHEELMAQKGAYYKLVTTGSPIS
Excerpt: In this experiment, we performed a preliminary study on the inhibition of the uptake of the substrate taurocholic acid (TCA) by the BSEP bile salt transporter by LC/MS/MS. The BSEP protein microvesicles with reverse uptake ability were obtained by transfecting Hi5 cells with the BSEP gene, which is capable of TCA uptake and uptake of taurocholic acid. The principle of this experiment is to perform substrate uptake by BSEP protein microcapsules in the presence of energy ATP, the substrate TCA and the candidate compound to be tested, after a certain transit time, the energy, substrate and candidate compound were completely washed out of the microvesicle, and the absorbed substrate TCA was released by lysis of the microvesicle. […] The starting concentration of the sample was 100 mM, diluted in 2-fold gradient with Bravo apparatus, with 11 concentration gradients; the lowest point concentration was 97.65 μM. • 3. Control compound (Glyburide) starting at 20 mM, diluted in 2-fold gradient with Bravo instrument, with 11 concentration gradients; the lowest point concentration was 19.53 μM. • 4. 300 nl of compound was transferred to the middle plate using the ECHO autosampler. • 5. Positive control (HPE) wells and negative control (ZPE) wells were also transferred 300 nl DMSO each. […] Add 14.7 μl of ATP buffer to the corresponding wells of the compound and ZPE, respectively. • 2. Add 14.7 μl of AMP buffer to the corresponding wells of the HPE. • 3. Shake the plate at 25 degrees C. for 10 minutes. • 4. […] Immediately add 5 ul of 0.5M EDTA solution to all wells, and then add 65 μl of Buffer B. All reactions are completed. • 6. Transfer […] of liquid from the end of reaction compound plate to the filter plate using the spiking apparatus. • 7. After placing the liquid receiving plate under the filter plate, use a centrifuge to remove the liquid and discard the liquid received in the receiving plate. • 8. Add 90 μl of buffer B to the filter plate and repeat step 7. Repeat steps 7 and 8 to wash the filter plate a total of three times. • 9. Let the filter plate dry overnight. • 10. Add 81 μl of 80% methanol/water solution to the filter plate the next day. • 11. Apply membrane to the filter plate and vibrate the plate for 15 minutes. • 12. Place a new liquid receiver plate under the filter plate and centrifuge for 5 min to filter all the liquid from the filter plate into the receiver plate. • 13. Add 13.5 μl of internal standard solution to each well of the liquid receiver plate and seal the plate with a sealing film. • 14. Using LC/MS/MS, detect the content of taurocholic acid in the receiver plate.

Compound | IC50 [nM]
O=C(O)C[C@@H]1COc2cc(OCc3cc(Cl)cc4c3OCO4)ccc21 [IIb-25] | 57700

same assay, conditions: read-out: BSEP

Compound | IC50 [nM]
O=C(O)C[C@@H]1COc2cc(OCc3cc(Cl)cc4c3OCO4)ccc21 [IIb-25] | > 25000

biological target: hERG (Homo sapiens, UniProt Q12809); assay: hERG assay; details: not given
Sequence (Q12809 whole entry): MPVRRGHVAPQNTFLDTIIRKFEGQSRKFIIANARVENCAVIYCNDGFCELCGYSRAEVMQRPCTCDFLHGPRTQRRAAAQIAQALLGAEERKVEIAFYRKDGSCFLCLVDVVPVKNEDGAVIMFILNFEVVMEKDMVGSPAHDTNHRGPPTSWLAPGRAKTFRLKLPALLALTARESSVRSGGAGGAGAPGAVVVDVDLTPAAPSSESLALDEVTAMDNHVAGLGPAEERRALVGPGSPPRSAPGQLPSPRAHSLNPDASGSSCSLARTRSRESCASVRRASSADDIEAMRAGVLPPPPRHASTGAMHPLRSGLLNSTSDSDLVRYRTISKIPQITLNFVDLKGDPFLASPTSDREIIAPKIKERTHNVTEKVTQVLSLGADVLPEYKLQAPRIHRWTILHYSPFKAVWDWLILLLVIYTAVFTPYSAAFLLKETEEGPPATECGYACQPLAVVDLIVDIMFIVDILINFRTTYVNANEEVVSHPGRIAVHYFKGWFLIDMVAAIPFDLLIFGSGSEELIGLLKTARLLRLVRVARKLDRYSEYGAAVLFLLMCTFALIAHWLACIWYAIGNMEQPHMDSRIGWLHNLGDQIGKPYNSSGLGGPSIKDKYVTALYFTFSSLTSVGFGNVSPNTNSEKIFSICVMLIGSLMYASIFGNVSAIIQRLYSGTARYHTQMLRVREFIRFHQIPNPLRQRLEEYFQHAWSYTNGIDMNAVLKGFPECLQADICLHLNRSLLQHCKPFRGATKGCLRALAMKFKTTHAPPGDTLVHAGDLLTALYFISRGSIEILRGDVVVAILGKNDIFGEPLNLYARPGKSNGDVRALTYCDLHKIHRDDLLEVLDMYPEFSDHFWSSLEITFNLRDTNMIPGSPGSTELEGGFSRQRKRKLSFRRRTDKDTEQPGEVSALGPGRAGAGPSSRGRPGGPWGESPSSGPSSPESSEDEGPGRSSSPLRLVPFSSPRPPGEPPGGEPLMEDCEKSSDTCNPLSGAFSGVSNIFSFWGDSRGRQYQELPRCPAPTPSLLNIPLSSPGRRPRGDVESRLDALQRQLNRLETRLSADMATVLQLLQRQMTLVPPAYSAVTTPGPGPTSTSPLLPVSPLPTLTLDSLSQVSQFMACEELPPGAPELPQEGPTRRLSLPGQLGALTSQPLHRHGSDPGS

Compound | IC50 [nM]
O=C(O)C[C@@H]1COc2cc(OCc3cc(Cl)cc4c3OCO4)ccc21 [IIb-25] | > 30000

tested on: not listed separately; assay: Acute Toxicity Study (MTD) by gavage in healthy mice; format: in vivo; details: mouse, in vivo, po, 600 mg/kg

Compound | LD50 at 5 days [mg/kg]
O=C(O)C[C@@H]1COc2cc(OCc3cc(Cl)cc4c3OCO4)ccc21 [IIb-25] | > 600

tested on: healthy mice; assay: as above; format: in vivo; details: mouse, in vivo, 600 mg/kg, 5 days

Compound | survival rate of the mice after administration [%]
O=C(O)C[C@@H]1COc2cc(OCc3cc(Cl)cc4c3OCO4)ccc21 [IIb-25] | 100
